Measurements as given in US5968737A, “Method of identifying inhibitors of glutathione S-transferase (GST) gene expression” (The University of Mississippi, priority 1996, dated 1999).
Where two headings read alike, the source gives them in different places.

Legend:
[1] = biological target: T1, human GST-π GSTP1a-1a, recombinant, encoded by hGSTP1*A (Ile104, Ala113; SEQ ID NO:3 and SEQ ID NO:4) (Homo sapiens, UniProt P09211); experiment: Enzyme kinetics: catalysis of the conjugation of GSH with CDNB by purified recombinant GST-π protein; assay type: biochemical; conditions: 25° C., 0.1M K-phosphate buffer pH 8.3, 2.5 mM GSH
T1 construct: made in house; host or cells: E. coli (XL1 Blue, pBK-CMV vector)
T1 sequence (P09211 2-210 limits assumed): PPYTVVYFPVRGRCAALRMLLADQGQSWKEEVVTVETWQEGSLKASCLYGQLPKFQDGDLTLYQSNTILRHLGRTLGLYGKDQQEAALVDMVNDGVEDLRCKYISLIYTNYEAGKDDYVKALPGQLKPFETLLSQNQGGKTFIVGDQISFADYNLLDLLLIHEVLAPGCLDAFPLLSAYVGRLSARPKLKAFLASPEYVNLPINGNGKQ
Protocol: (§1) FIGS. 8A-C. Lineweaver-Burke plots for the catalysis of the conjugation of GSH with CDNB by GSH-affinity chromatography purified recombinant GSTP1a-1a (FIG. 8A), GSTP1b-1b (FIG. 8B) and GSTP1c-1c (FIG. 8C). Reaction rates were determined with 2.5 mM GSH and 0.015 unit of each enzyme.
(§2) Purification and enzyme kinetic analysis of variant GST-π proteins. Functional consequences of the structural differences in the GST-π variant proteins was determined by the differential ability of the recombinant GST-π proteins to catalyze the conjugation of GSH with 1-chloro-2,4-dinitrobenzene (CDNB), a universal GST substrate. After expression in E. coli, the three GST-π proteins were purified by GSH-affinity chromatography on S-hexyl glutathione linked to epoxy-activated sepharose 6B, as previously described (Simons and Van der Jagt, 1981) and then used for enzyme kinetic analysis. Reaction mixtures (25° C.) in 100 mM potassium phosphate buffer, pH 8.3 contained 0.5-2.5 mM CDNB, 2.5 mM GSH and 0.015 unit of purified GST-π protein. The change in absorbance was monitored at 340 nm over two minutes and used to compute reaction rates. The rates of the spontaneous reactions of GSH with CDNB, determined with reaction mixtures in which the GST-π enzyme was replaced with buffer, were subtracted from the rates of the enzyme catalyzed reactions. The resulting reaction rates were used to generate double reciprocal plots from which Vmax and Km values were determined, using standard methodology (Segel, 1976).

[2] = biological target: T2, human GST-π variant GSTP1b-1b, recombinant, encoded by hGSTP1*B (Ile104→Val104; SEQ ID NO:5 and SEQ ID NO:6) (Homo sapiens, UniProt P09211, I105V); experiment: as above; assay type: biochemical; conditions: 25° C., 0.1M K-phosphate buffer pH 8.3, 2.5 mM GSH
T2 construct: made in house; host or cells: E. coli (XL1 Blue, pBK-CMV vector)
T2 sequence (P09211 2-210 I105V): as the sequence (P09211 2-210 limits assumed) above, with I104V counted along it
Protocol: as §1, §2

[3] = biological target: T3, human GST-π variant GSTP1c-1c, recombinant, encoded by hGSTP1*C (Ile104→Val104, Ala113→Val113; SEQ ID NO:7 and SEQ ID NO:8) (Homo sapiens, UniProt P09211, A114V/I105V); experiment: as above; assay type: biochemical; conditions: 25° C., 0.1M K-phosphate buffer pH 8.3, 2.5 mM GSH
T3 construct: made in house; host or cells: E. coli (XL1 Blue, pBK-CMV vector)
T3 sequence (P09211 2-210 I105V/A114V): as the sequence (P09211 2-210 limits assumed) above, with I104V, A113V counted along it
Protocol: as §1, §2

[4] = tested on: GST-π gene expression in MGR-3 cells; experiment: Retinoic acid effect on GST-π gene expression in tumor cells (Northern and Western blotting); assay type: cell-based; conditions: Homo sapiens
Protocol: Retinoic acid effect on GST-π gene expression in tumor cells. To further determine the functionality of the RAREs in GST-π gene of MGR-3 cell line, we examined changes in GST-π gene transcripts in MGR-3 cells after exposure to RA. For this study, MGR-3 cells in exponential growth were treated with 1 μM all-trans RA. Another set cultures without RA treatment served as controls. After 24 and 48 hrs incubation at 37° C., total RNA was extracted and GST-π gene transcript levels were determined by Northern blotting, as described earlier. Alterations in GST-π protein content was determined in cells similarly treated with 1 μM all-trans RA. Cultures were harvested after 0, 12, 24 and 48 hrs post-RA exposure, cell extracts prepared from them, as previously described, and subjected to Western blotting with anti-GST-π antibodies.

[5] = tested on: RAR-β levels in MGR-3 cells; experiment: Induction of RAR-β in nuclear extracts of RA-treated MGR-3 cells (immunoprecipitation); assay type: cell-based; conditions: Homo sapiens, 48-hr exposure, read-out: increase in RAR-β levels compared to untreated controls
[6] = listed as 1-Chloro-2,4-dinitrobenzene

Row | SMILES | Vmax (CDNB) [1] [µmol/min/mg] | Km ([1]; 0.5-2.5 mM CDNB) [µM] | Vmax (CDNB) [1, 6] [µmol/min/mg] | Vmax (CDNB) [2] [µmol/min/mg] | Km ([2]; 0.5-2.5 mM CDNB) [µM] | Vmax (CDNB) [2, 6] [µmol/min/mg] | Vmax (CDNB) [3] [µmol/min/mg] | Km ([3]; 0.5-2.5 mM CDNB) [µM] | Vmax (CDNB) [3, 6] [µmol/min/mg] | fold induction at 1 µM ([4]; 1.0 μM, 48 hr, Northern analysis, read-out: increase in the level of GST-π gene transcripts relative to control levels (maximum)) | fold induction at 1 µM ([4]; 1 μM, 48 hrs, Western blot, read-out: increase in GST-π protein content relative to untreated controls) | fold induction at 1 µM [5]
1 | O=[N+]([O-])c1ccc(Cl)c([N+](=O)[O-])c1 [CDNB, 1-chloro-2,4-dinitrobenzene] | 4.7 ± 0.03 | 980 | 4.7 ± 0.03 | 1.7 ± 0.087 | 2700 ± 23 | 1.6 ± 0.087 | 1.4 ± 0.23 | 3100 ± 170 | 1.4 ± 0.23 | – | – | –
2 | CC1=C(/C=C/C(C)=C/C=C/C(C)=C/C(=O)O)C(C)(C)CCC1 [all-trans retinoic acid] | – | – | – | – | – | – | – | – | – | 3.4 | 2.8 | > 3
